Results on 14 molecules are retold here after US20240158393A1, “PYRIDONE COMPOUNDS AND METHODS OF USE” (Exelixis, Inc., priority 2021, published 2024).

The target in one assay is T1, Human KDR (Homo sapiens, UniProt P35968).
T1 construct: Human KDR (residues K790-V1356, 55 nM); purchased Eurofins Pharma Discovery Services UK Limited (KinaseProfiler, B-1) and/or CarnaBio (B-2)
The experiment in a line: Human KDR kinase assay (33P radiometric / HTRF KinEase). The format is biochemical. The settings on record: protocols of Examples B-1 and/or B-2. Put shortly:
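Radiometric: KDR K790-V1356 (55 nM), MOPS pH 7.0, myelin basic protein, 10 μM [γ-33P]ATP, 40 min at room temperature, filter-bound 33P counted; nine half-log doses, top 1 μM. HTRF: KDR 790-1356, 1 μM biotinylated peptide, ATP at Km (4.0 μM), 40 min, 10 doses. IC50 from logistic fits.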
(In general: TR-FRET usually uses a lanthanide donor and a delayed reading to cut background.)

Another assay has as its target T2, Human Met (Homo sapiens, UniProt P08581).
T2 construct: Human MET (residues 956-1390)
The experiment in a line: Human Met kinase assay (33P radiometric / HTRF KinEase). The format is biochemical. As to conditions: protocols of Examples D-1 and/or D-2; read-out: c-Met IC50. In short, it runs like this: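 Two formats gave IC50s by curve fitting. HTRF KinEase used MET residues 956-1390 with 1 μM biotin-peptide and 3.0 μM ATP (Km) for 40 min at room temperature, ten doses in 3% DMSO, 665/620 nm read. The 33P transfer assay used mutant Met R974-S1390 A1209G/V1290L (3.4 nM), 10 μM ATP, 250 μM peptide, pH 7.0, 40 min, nine doses from 1 μM.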

Molecules are shown by their SMILES.

T1 sequence (P35968 790-1356): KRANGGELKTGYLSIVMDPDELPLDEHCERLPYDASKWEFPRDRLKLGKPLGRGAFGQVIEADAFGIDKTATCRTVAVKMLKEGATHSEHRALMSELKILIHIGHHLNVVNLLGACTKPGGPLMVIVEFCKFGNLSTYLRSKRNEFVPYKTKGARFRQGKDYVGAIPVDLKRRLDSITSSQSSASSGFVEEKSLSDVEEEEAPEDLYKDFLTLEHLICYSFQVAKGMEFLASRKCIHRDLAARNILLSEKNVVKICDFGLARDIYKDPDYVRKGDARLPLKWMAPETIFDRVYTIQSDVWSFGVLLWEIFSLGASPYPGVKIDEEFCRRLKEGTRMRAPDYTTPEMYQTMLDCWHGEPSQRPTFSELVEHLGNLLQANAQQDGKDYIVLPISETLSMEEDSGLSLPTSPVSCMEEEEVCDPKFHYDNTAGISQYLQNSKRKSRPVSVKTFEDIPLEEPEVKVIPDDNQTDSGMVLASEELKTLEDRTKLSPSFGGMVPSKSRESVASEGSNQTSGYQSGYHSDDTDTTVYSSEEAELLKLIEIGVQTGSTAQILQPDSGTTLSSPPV
T2 sequence (P08581 974-1390 limits assumed): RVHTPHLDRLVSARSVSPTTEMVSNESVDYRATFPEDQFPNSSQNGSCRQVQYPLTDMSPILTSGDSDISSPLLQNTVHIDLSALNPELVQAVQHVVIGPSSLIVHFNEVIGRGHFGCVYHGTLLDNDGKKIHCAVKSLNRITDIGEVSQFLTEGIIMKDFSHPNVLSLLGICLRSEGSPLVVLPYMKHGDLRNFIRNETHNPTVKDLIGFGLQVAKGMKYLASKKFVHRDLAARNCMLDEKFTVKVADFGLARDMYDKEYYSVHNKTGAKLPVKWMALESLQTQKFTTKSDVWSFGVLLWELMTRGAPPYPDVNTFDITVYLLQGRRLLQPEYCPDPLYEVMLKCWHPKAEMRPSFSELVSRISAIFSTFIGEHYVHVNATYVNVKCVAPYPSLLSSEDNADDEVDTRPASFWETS

As to `COc1cc2nccc(Oc3ccc(NC(=O)c4c(C)n(C)c(C)c(N5CCCC5)c4=O)cc3F)c2nc1OC` [Compound 89, N-[4-[(6,7-Dimethoxy-1,5-naphthyridin-4-yl)oxy]-3-fluorophenyl]-1,2,6-trimethyl-4-oxo-5-pyrrolidin-1-ylpyridine-3-carboxamide], the IC50 against Human KDR and on Human Met was at most 100 nM in each case.

For the molecule `COc1cc2nccc(Oc3ccc(NC(=O)c4c(C)n(C)c(C)c(N5CCCCC5)c4=O)cc3F)c2nc1OC` [Compound 90, N-[4-[(6,7-dimethoxy-1,5-naphthyridin-4-yl)oxy]-3-fluorophenyl]-1,2,6-trimethyl-4-oxo-5-piperidin-1-ylpyridine-3-carboxamide], the IC50 was 100 to 300 nM against Human KDR and over 300 nM at Human Met.

Take `COc1cnc2c(Oc3ccc(NC(=O)c4c(C)nc(C)c(C(N)=O)c4O)cc3F)ccnc2c1` [Compound 91, 3-N-[3-Fluoro-4-[(7-methoxy-1,5-naphthyridin-4-yl)oxy]phenyl]-4-hydroxy-2,6-dimethylpyridine-3,5-dicarboxamide]: the IC50 on Human KDR and at Human Met was over 300 nM each time.

Turning to `COc1cc2nccc(Oc3ccc(NC(=O)c4c(C)n(C)c(C)c(C(=O)O)c4=O)cc3F)c2nc1OC` [Compound 92, 5-[[4-[(6,7-Dimethoxy-1,5-naphthyridin-4-yl)oxy]-3-fluorophenyl]carbamoyl]-1,2,6-trimethyl-4-oxopyridine-3-carboxylic acid], the IC50 against Human KDR is 100 to 300 nM; on Human Met, over 300 nM.

As to `COc1cc2nccc(Oc3ccc(NC(=O)c4c(C)nc(C)c(C(=O)N(C)C)c4O)cc3F)c2nc1OC` [Compound 93, 3-N-[4-[(6,7-Dimethoxy-1,5-naphthyridin-4-yl)oxy]-3-fluorophenyl]-4-hydroxy-5-N,5-N,2,6-tetramethylpyridine-3,5-dicarboxamide], the IC50 against Human KDR and at Human Met was at most 100 nM in each case.

For the molecule `COc1cc2nccc(Oc3ccc(NC(=O)c4c(C)nc(C)c(C(=O)NC(C)C)c4O)cc3F)c2nc1OC` [Compound 94, 3-N-[4-[(6,7-Dimethoxy-1,5-naphthyridin-4-yl)oxy]-3-fluorophenyl]-4-hydroxy-2,6-dimethyl-5-N-propan-2-ylpyridine-3,5-dicarboxamide], the IC50 was at most 100 nM on Human KDR and over 300 nM at Human Met.

In the case of `COc1cc2nccc(Oc3ccc(NC(=O)c4c(C)n(C)c(C)c(C(=O)N(C)C)c4=O)cc3F)c2nc1OC` [Compound 95, 5-N-[4-[(6,7-Dimethoxy-1,5-naphthyridin-4-yl)oxy]-3-fluorophenyl]-3-N,3-N,1,2,6-pentamethyl-4-oxopyridine-3,5-dicarboxamide], the IC50 at Human KDR and on Human Met was over 300 nM in each case.

For the molecule `COc1cc2nccc(Oc3ccc(NC(=O)c4c(C)n(C)c(C)c(C(=O)NC5CC5)c4=O)cc3F)c2nc1OC` [Compound 96, 3-N-Cyclopropyl-5-N-[4-[(6,7-dimethoxy-1,5-naphthyridin-4-yl)oxy]-3-fluorophenyl]-1,2,6-trimethyl-4-oxopyridine-3,5-dicarboxamide], the IC50 against Human KDR and at Human Met was over 300 nM in each case.

On to `CNC(=O)c1c(C)nc(C)c(C(=O)Nc2ccc(Oc3ccnc4cc(OC)c(OC)nc34)c(F)c2)c1O` [Compound 97, 3-N-[4-[(6,7-Dimethoxy-1,5-naphthyridin-4-yl)oxy]-3-fluorophenyl]-4-hydroxy-5-N,2,6-trimethylpyridine-3,5-dicarboxamide], for which the figures for the half-inhibitory concentration (IC50) at Human KDR and at Human Met were 100 to 300 nM and over 300 nM, respectively.

In the case of `COc1cc2nccc(Oc3ccc(NC(=O)c4c(C)nc(C)c(C(=O)NC5CC5)c4O)cc3F)c2nc1OC` [Compound 98, 5-N-Cyclopropyl-3-N-[4-[(6,7-dimethoxy-1,5-naphthyridin-4-yl)oxy]-3-fluorophenyl]-4-hydroxy-2,6-dimethylpyridine-3,5-dicarboxamide], the IC50 on Human KDR is at most 100 nM; on Human Met, over 300 nM.

On to `COc1cc2nccc(Oc3ccc(NC(=O)c4c5n(c(C)c(C6=CCCC6)c4=O)CCOC5)cc3)c2nc1OC` [Compound 99, 7-(Cyclopenten-1-yl)-N-[4-[(6,7-dimethoxy-1,5-naphthyridin-4-yl)oxy]phenyl]-6-methyl-8-oxo-3,4-dihydro-1H-pyrido[2,1-c][1,4]oxazine-9-carboxamide], for which the IC50 against Human KDR was over 300 nM; at Human Met it was at most 100 nM.

With `COc1cc2nccc(Oc3ccc(NC(=O)c4c5n(c(C)c(C6=CCCCC6)c4=O)CCOC5)cc3)c2nc1OC` [Compound 100, 7-(Cyclohexen-1-yl)-N-[4-[(6,7-dimethoxy-1,5-naphthyridin-4-yl)oxy]phenyl]-6-methyl-8-oxo-3,4-dihydro-1H-pyrido[2,1-c][1,4]oxazine-9-carboxamide], the IC50 against Human KDR is over 300 nM; on Human Met it was at most 100 nM.

Take `COc1cc2nccc(Oc3ccc(NC(=O)c4c5n(cc(C6=CCCCC6)c4=O)CCOC5)cc3)c2nc1OC` [Compound G1-5, 7-(Cyclohexen-1-yl)-N-[4-[(6,7-dimethoxy-1,5-naphthyridin-4-yl)oxy]phenyl]-8-oxo-3,4-dihydro-1H-pyrido[2,1-c][1,4]oxazine-9-carboxamide]: the IC50 on Human KDR was over 300 nM; at Human Met, at most 100 nM.

`COc1cc2nccc(Oc3ccc(NC(=O)c4c5n(cc(C6=CCOCC6)c4=O)CCOC5)cc3)c2nc1OC` [Compound G1-8, 7-(3,6-Dihydro-2H-pyran-4-yl)-N-[4-[(6,7-dimethoxy-1,5-naphthyridin-4-yl)oxy]phenyl]-8-oxo-3,4-dihydro-1H-pyrido[2,1-c][1,4]oxazine-9-carboxamide]: the IC50 on Human KDR and at Human Met was over 300 nM each time.

What is called IC50 is the concentration at which inhibition is half-maximal.
